Tested on: TRPM8-mediated icilin-induced wet-dog shakes in rats
Experiment: Icilin-induced wet-dog shake (WDS) model
Type: in vivo, rat
Description: The TRPM8 antagonist (1, 3, or 10 mg/kg) or vehicle control (5 % Tween 80 in OraPlus®) was administered p.o. 90 min prior to administration of icilin (0.5 mg/kg, 1 ml/kg, i.p., 100 % PEG 400). […] Rats were viewed through transparent Plexiglas® observation cylinders that were placed on a custom, opaque, plastic apparatus such that one rat could not view another rat.
In vivo IC50 and IC90 estimates using WDS model data were determined by fitting a sigmoidal dose-response curve to individual animal number of WDS versus resulting plasma concentration. Behavioral and electrophysiological data are expressed as mean ± standard error of the mean (S.E.M.). Results were analyzed using one-way analysis of variance (ANOVA) with Dunnett’s multiple-comparisons post-hoc test for significance relative to vehicle. […] Actual gram values are plotted on a logarithmic scale Y-axis of the figures for convenience. Statistical calculations and graphs were made using GraphPad Prism 5.01 (GraphPad Software Inc, San Diego, CA). Percent responders to menthol stimulation in the ex vivo skin-nerve preparation were compared under vehicle and antagonist conditions through the use of Fisher’s exact test. Responses of C fibers to increasing mechanical forces under vehicle or antagonist conditions were compared using a two-way ANOVA with a Bonferonni post-hoc analysis.

For `C[C@H](NC(=O)N1CCc2cccnc2[C@H]1c1ccc(C(F)(F)F)cc1)C(F)(F)F` [AMG2850, (R)-8-(4-(trifluoromethyl)phenyl)-N-((S)-1,1,1-trifluoropropan-2-yl)-5,6-dihydro-1,7-naphthyridine-7(8H)-carboxamide], the “prevention of icilin-induced WDS” value (10 mg/kg p.o., 90 min before icilin 0.5 mg/kg i.p.) was “Full prevention”, the IC90 (Rattus norvegicus, ip, unbound plasma concentration, icilin 0.5 mg/kg i.p., read-out: Rat PD IC90 (unbound mean in vivo IC90, WDS model)) was 99 nM and the ED50 (Rattus norvegicus, p.o., icilin 0.5 mg/kg i.p., read-out: Rat PD ED50) was 1.8 mg/kg.

— PMC4359714 (Naunyn-Schmiedeberg's Archives of Pharmacology, 2015)
